{"source": "patent US5366733A", "about": "“Method for the treatment of periodontal disease by sustained delivery of a therapeutic agent to the periodontal pocket, and composition of matter therefor” (priority 1991, dated 1994)", "key": {"[1]": {"test_system": "organisms associated with periodontal disease", "settings": "cited from earlier work"}, "[2]": {"settings": "dog, in vivo", "description": "Therefore, a study to evaluate four different minocycline periodontal formulations relative to determining minocycline levels in crevicular fluid was conducted in a dog model. The study utilized beagle dogs with surgically created \"chronic\" intrabony periodontal defects. This model entails the extraction of the two lower fourth premolars and the induction of surgically created intrabony defects at the mesial surface of the first molars and distal surface of the third premolars.\nIn sequence, the defects were created as follows: First, the lower fourth premolars were extracted, sockets were allowed to heal for one month, and dogs received a full mouth scaling and tooth cleaning. […] Dogs were monitored for an additional four weeks.\nFor evaluation of crevicular levels of minocycline, dogs were placed under general anesthesia, and the various formulations were administered into the periodontal pockets associated with the created defects. […] The strip was then removed, and the relative amount of fluid was determined by a Periotron 6000 instrument. […]\nStrips were assayed for minocycline by a microbiological technique that involves use of the minocycline-susceptible bacterium, Bacillus cereus. […] Zones of inhibited bacterial growth were plotted, and the quantity of minocycline present was determined by comparison with zones obtained with minocycline solutions of known concentration. […]"}}}
{"smiles": "CN(C)c1ccc(O)c2c1C[C@H]1C[C@H]3[C@H](N(C)C)C(O)=C(C(N)=O)C(=O)[C@@]3(O)C(O)=C1C2=O", "note": "[minocycline, 7-dimethylamino-6-deoxy-6-demethyltetracycline]", "values": [{"measurement": "MIC's for organisms associated with periodontal disease", "setting": "[1]", "result": "0.05 to 1.56", "unit": "µg/mL"}, {"measurement": "Periods for which minimum inhibitory concentrations (MIC's) can be achieved", "setting": "[2]", "result": "up to two"}]}
